In patent US6462069B2, “Compounds, pharmaceutical compositions, and methods for inhibiting protein kinases” (Agouron Pharmaceuticals, Inc., priority 2000, dated 2002):
pIC50, pKi: −log10 of the molar value.

Legend:
CDK4/cyclin D3 complex = target: T1, CDK4/cyclin D3 complex (Homo sapiens, UniProt P11802); assay: Inhibition of CDK4/Cyclin D retinoblastoma kinase activity; format: biochemical; conditions: for pKi: apparent Ki
T1 construct: made in house; host or cells: insect cells co-infected with baculovirus expression vectors
Protocol: (§1) Cyclin-dependent kinase activity was measured by quantifying the enzyme-catalyzed, time-dependent incorporation of radioactive phosphate from [^32P]ATP or [^33P]ATP into a protein substrate. Unless noted otherwise, assays were performed in 96-well plates in a total volume of 50 μL, in the presence of 10 mM HEPES (N-[2-hydroxyethyl]piperazine-N′-[2-ethanesulfonic acid]) (pH 7.4). 10 mM MgCI2, 25 μM adenosine triphosphate (ATP), 1 mg/mL ovalbumin, 5 μg/mL leupeptin, 1 mM dithiothreitol, 10 mM beta-glycerophosphate, 0.1 mM sodium vanadate, 1 mM sodium fluoride, 2.5 mM ethylene glycol-bis(β-aminoethyl ethKer)-N,N,N′N′-tetraacetic acid (EGTA), 2% (v/v) dimethylsulfoxide, and 0.03-0.4 μCi [^32/33P]ATP per reaction. Reactions were initiated with enzyme, incubated at 30° C. and terminated after 20 minutes by the addition ofethylenediaminetetraacetic acid (EDTA) to 250 mM. The phosphorylated substrate was then captured on a nitrocellulose or phosphocellulose membrane using a 96-well filtration manifold, and unincorporated radioactivity was removed by repeated washing with 0.85% phosphoric acid. Radioactivity was quantified by exposing the dried membranes to a phosphorimager.
(§2) Apparent Ki values were measured by assaying enzyme activity in the presence of different inhibitor compound concentrations and subtracting the background radioactivity measured in the absence of enzyme. Inhibition data were fit to an equation for competitive inhibition using Kaleidagraph (Synergy Software), or were fit to an equation for competitive tight-binding inhibition using the software KineTic (BioKin, Ltd.).
A complex of human CDK4 and cyclin D3, or a complex of human CDK4 and genetically truncated (1-264) cyclin D3, was purified using traditional biochemical chromatographic techniques from insect cells that had been co-infected with the corresponding baculovirus expression vectors ((see e.g., Meijer and Kim, “Chemical Inhibitors of Cyclin-Dependent Kinases,” Methods in Enzymol,. vol. 283, pp. 113-128 (1997)). The enzyme complex (5 or 50 nM) was assayed with 0.3-0.5 μg of purified recombinant retinoblastoma protein fragment (Rb) as a substrate. The engineered Rb fragment (residues 386-928 of the native retinoblastoma protein; 62.3 kDa) contains the majority of the phosphorylation sites found in the native 106-kDa protein, as well as a tag of six histidine residues for ease of purification. Phosphorylated Rb substrate was captured by microfiltration on a nitrocellulose membrane and quantified using a phosphorimager as described above. For measurement of tight-binding inhibitors, the enzyme complex concentration was lowered to 5 nM, and the assay duration was extended to 60 minutes, during which the time-dependence of product formation was linear.

[1] = target: T2, full-length human CHK1 (FL-CHK1) (Homo sapiens, UniProt O14757); assay: CHK1 assay (coupled spectrophotometric); format: biochemical
T2 construct: C-terminally His-tagged full-length human CHK1 (FL-CHK1); made in house; host or cells: baculovirus/insect cell system
T2 sequence (O14757 1-476): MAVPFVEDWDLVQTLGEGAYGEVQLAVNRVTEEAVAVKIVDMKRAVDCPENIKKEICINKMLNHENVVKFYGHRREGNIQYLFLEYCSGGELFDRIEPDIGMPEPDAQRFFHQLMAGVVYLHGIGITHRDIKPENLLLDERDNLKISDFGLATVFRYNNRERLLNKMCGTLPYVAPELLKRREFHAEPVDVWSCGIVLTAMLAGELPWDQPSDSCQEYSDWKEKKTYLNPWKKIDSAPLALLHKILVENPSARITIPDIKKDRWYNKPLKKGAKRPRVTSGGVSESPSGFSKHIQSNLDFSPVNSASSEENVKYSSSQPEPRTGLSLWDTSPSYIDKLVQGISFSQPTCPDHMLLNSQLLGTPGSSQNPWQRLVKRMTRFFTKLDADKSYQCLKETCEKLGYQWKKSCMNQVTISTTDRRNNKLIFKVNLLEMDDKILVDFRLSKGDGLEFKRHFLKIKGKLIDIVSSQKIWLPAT
Description: C-terminally His-tagged full-length human CHK1 (FL-CHK1) was expressed using the baculovirus/insect cell system. It contains 6 histidine residues (6×His-tag) at the C-terminus of the 476 amino acid human CHK1. The protein was purified by conventional chromatographic techniques.
The production of ADP from ATP that accompanies phosphoryl transfer to the synthetic substrate peptide Syntide-2 ([…]) was coupled to oxidation of NADH using phosphoenolpyruvate (PEP) through the actions of pyruvate kinase (PK) and lactic dehydrogenase (LDH). The oxidation of NADH was monitored by following the decrease of absorbance at 340 nm (∈340=6.22 cm^−1 mM^−1) using a HP8452 spectrophotometer. Typical reaction solutions contained: […] PEP; 0.15 mM NADH; 28 units of LDH/ml; 16 units of PK/ml; 3 mM DTT; 0.125 mM Syntide-2: 0.15 mM ATP; 25 mM MgCI2 in 50 mM TRIS, pH 7.5; and 400 mM NaCl. Assays were initiated with 10 nM of FL-CHK1. Ki values were determined by measuring initial enzyme activity in the presence of varying concentrations of test compounds. The data were analyzed using Enzyme Kinetic and Kaleidagraph software.

CDK2/cyclin A complex = target: T3, CDK2/cyclin A complex (Homo sapiens, UniProt P24941); assay: Inhibition of CDK2/Cyclin A retinoblastoma kinase activity; format: biochemical; conditions: for pKi: apparent Ki
T3 construct: made in house; host or cells: CDK2: insect cells (baculovirus); cyclin A: E. coli
Protocol: as §1, §2
CDK2 was purified using published methodology (Rosenblatt et al., “Purification and Crystallization of Human Cyclin-dependent Kinase 2,” J. Mol. Biol., vol. 230, pp. 1317-1319 (1993)) from insect cells that had been infected with a baculovirus expression vector. […] Ki values were measured as described above.

HCT 116 cell line = assay: Inhibition of cell growth, MTT tetrazolium salt assay; format: cell-based; conditions: Homo sapiens, HCT116 cells; for pIC50: 50% inhibition of growth, read-out: HCT116 IC 50
Protocol: Inhibition of cell growth was measured using the tetrazolium salt assay, which is based on the ability of viable cells to reduce 3-(4,5-dimethylthiazol-2-yl)-2,5-[2H]-diphenyltetrazolium bromide (MTT) to formazan (Mossman, Journal of Immunological Methods, vol.65, pp. 55-58(1983)). The water-insoluble purple formazan product was then detected spectrophotometrically. The HCT 116 cell line was grown in 96-well plates. Cells were plated in the appropriate medium at a volume of 135 μl/well in McCoy's 5A Medium. Plates were incubated for four hours before addition of inhibitor compounds. Different concentrations of inhibitor compounds were added in 0.5% (v/v) dimethylsulfoxide (15 μL/well), and cells were incubated at 37° C. (5% CO2) for four to six days (depending on cell type). At the end of the incubation, MTT was added to a final concentration of 0.2 mg/mL, and cells were incubated for 4 hours more at 37° C. After centrifugation of the plates and removal of medium, the absorbance of the formazan (solubilized in dimethylsulfoxide) was measured at 540 nm. The concentration of inhibitor compound causing 50% inhibition of growth was determined from the linear portion of a semi-log plot of inhibitor concentration versus percentage inhibition. All results were compared to control cells treated only with 0.5% (v/v) dimethylsulfoxide.

T1 sequence (P11802 whole entry): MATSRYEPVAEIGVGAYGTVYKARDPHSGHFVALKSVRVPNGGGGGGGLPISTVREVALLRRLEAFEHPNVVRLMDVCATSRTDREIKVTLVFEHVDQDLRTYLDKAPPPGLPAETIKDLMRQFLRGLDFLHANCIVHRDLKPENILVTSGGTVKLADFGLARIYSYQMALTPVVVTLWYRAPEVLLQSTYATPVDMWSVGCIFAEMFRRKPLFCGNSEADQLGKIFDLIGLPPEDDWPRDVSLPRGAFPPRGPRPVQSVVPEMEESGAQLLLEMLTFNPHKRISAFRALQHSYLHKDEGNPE
T1 sequence (P30281 whole entry partner): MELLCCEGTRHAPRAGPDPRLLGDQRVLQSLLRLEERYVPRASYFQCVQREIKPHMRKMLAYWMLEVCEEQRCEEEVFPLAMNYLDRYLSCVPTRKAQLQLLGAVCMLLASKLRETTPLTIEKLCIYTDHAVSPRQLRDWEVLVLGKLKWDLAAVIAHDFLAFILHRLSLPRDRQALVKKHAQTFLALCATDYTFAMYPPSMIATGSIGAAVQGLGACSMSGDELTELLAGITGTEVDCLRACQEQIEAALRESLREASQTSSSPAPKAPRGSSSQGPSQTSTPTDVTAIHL

Row | SMILES | pKi (CDK4/cyclin D3 complex) | pKi (CDK2/cyclin A complex) | other results
1 | c1ccc(Nc2cc(-c3cccnc3)[nH]n2)cc1 [Compound C] | 4.23 | 4.21 | pKi [1]: 5.82
2 | c1ccc(Nc2n[nH]c3c2-c2ccccc2C3)cc1 [Compound D, (1,8-Dihydro-indeno[2,1-c]pyrazol-3-yl)-phenyl-amine] | 5.13 | 4.60 | 
3 | Brc1cscc1-c1cc(Nc2ccccc2)n[nH]1 [Compound E, [5-(4-Bromo-thiophen-3-yl)-1H-pyrazol-3-yl]1-phenyl-amine] | 5.01 | 4.66 | 
4 | C(=C\c1cscc1-c1cc(Nc2ccccc2)n[nH]1)/c1ccccc1 [Compound F, Phenyl-[5-(4-trans-styryl-thiophen-3-yl]-1H-pyrazol-3-yl]-amine] |  |  | inhibition at 10 µM (CDK4/cyclin D3 complex; at 10 μM, read-out: Percent Inhibition CDK4/D): 25%; inhibition at 10 µM (CDK2/cyclin A complex; at 10 μM, read-out: Percent Inhibition CDK2/A): 37%
5 | C1=C(c2cscc2-c2cc(Nc3ccccc3)n[nH]2)CCCC1 [Compound G, [5-(4-Cyclohex-1-enyl-thiophen-3-yl)-1H-pyrazol-3-yl]-phenyl-amine] | 5.00 | 5.00 | 
6 | c1ccc(Nc2cc(-c3cscc3C3CCCCC3)[nH]n2)cc1 [Compound H, [5-(4-Cyclohexyl-thiophen-3-yl)-1H-pyrazol-3-yl]-phenyl-amine] | 5.52 | 5.52 | 
7 | c1ccc(Nc2cc(-c3cscc3Sc3ccccc3)[nH]n2)cc1 [Compound I, Phenyl-[5-(4-phenylsulfanyl-thiophene-3-yl)-1H-pyrazol-3-yl]-amine] | 5.33 |  | 
8 | c1ccc(Nc2cc(-c3c[nH]c4ccccc34)[nH]n2)cc1 [Compound J, [5-(1H-Indol-3-yl)-1H-pyrazol-3-yl]-phenyl-amine] | 4.92 | 4.82 | pKi [1]: 4.74
9 | COc1ccc(Nc2cc(-c3csc4ccccc34)[nH]n2)cc1 [Compound K, (5-Benzo[b]thiophen-3-yl-1H-pyrazol-3-yl)-4-(methoxy-phenyl)-amine] | 5.33 | 5.20 | 
10 | Oc1ccc(Nc2cc(-c3csc4ccccc34)[nH]n2)cc1 [Compound L, 4-(Benzo[b]thiophen-3-yl-1H-pyrazol-3-ylamino)-phenol] | 5.28 | 5.70 | 
11 | COc1cccc(Nc2cc(-c3csc4ccccc34)[nH]n2)c1 [Compound M] | 5.39 | 4.68 | 
12 | Oc1cccc(Nc2cc(-c3csc4ccccc34)[nH]n2)c1 [Compound N, 3-(Benzo[b]thiophen-3-yl-1H-pyrazol-3-ylamino)-phenol] | 5.31 | 5.62 | 
13 | NS(=O)(=O)c1ccc(Nc2cc(-c3csc4ccccc34)[nH]n2)cc1 [Compound O] | 5.80 | 7.21 | pIC50 (HCT 116 cell line): 5.02; IC90 (HCT 116 cell line; read-out: HCT116 IC 90): 24 µM
14 | NS(=O)(=O)c1ccc(Nc2cc(-c3csc4c(Br)cccc34)[nH]n2)cc1 [Compound P, 4-[5-(7-Bromo-benzo[b]thiophen-3-yl)-1H-pyrazol-3-ylamino]-benzenesulfonamide] | 5.68 | 6.96 | 
15 | COc1cccc(-c2cccc3c(-c4cc(Nc5ccc(S(N)(=O)=O)cc5)n[nH]4)csc23)c1 [Compound Q, 4-{5-[7-(3-Methoxy-phenyl)-benzo[b]thiophen-3-yl]-1H-pyrazol-3-ylamino]-benzenesulfonamide] |  |  | inhibition at 5 µM (CDK4/cyclin D3 complex; at 5 μM, read-out: Percent Inhibition CDK4/D): 13%; inhibition at 5 µM (CDK2/cyclin A complex; at 5 μM, read-out: Percent Inhibition CDK2/A): 21%
16 | NS(=O)(=O)c1ccc(Nc2cc(-c3csc4c(-c5cccc(O)c5)cccc34)[nH]n2)cc1 [Compound R, 4-{5-[7-(3-Hydroxy-phenyl)-benzo[b]thiophen-3-yl]-1H pyrazol-3-ylamino]-benzenesulfonamide] | 5.48 | 5.57 | inhibition at 10 µM ([1]; at 10 μM, read-out: Percent Inhibition CHK1): 8%
17 | NS(=O)(=O)c1ccc(Nc2cc(-c3csc4c(-c5ccc(O)cc5)cccc34)[nH]n2)cc1 [Compound T, 4-{5-[7-(4-Hydroxy-phenyl)-benzo[b]thiophen-3-yl]-1H-pyrazol-3-ylamino]-benzenesulfonamide] | 5.68 | 5.49 | 
18 | NS(=O)(=O)c1ccc(Nc2cc(-c3csc4ccc(Br)cc34)[nH]n2)cc1 [Compound U, {5-[3-(5-Bromo)-benzo[b]Thiophenyl]-1-H-pyrazol-3-yl}-phenylamine-4-Sulfonamide] | 5.64 | 7.10 | 
19 | COc1ccc2c(-c3cc(Nc4ccc(S(N)(=O)=O)cc4)n[nH]3)csc2c1 [Compound V, 4-[5-(6-Methoxy-benzo[b]Thiophen-3-yl)-1H-pyrazol-3-ylamino]-Benzenesulfonamide] | 4.92 | 6.57 | 
20 | NS(=O)(=O)c1ccc(Nc2cc(-c3csc4cc(O)ccc34)[nH]n2)cc1 [Compound W, 4-[5-(6-Hydroxy-benzo[b]Thiophen-3-yl)-1H-pyrazol-3-ylamino]-Benzenesulfonamide] | 6.05 | 7.80 | pIC50 (HCT 116 cell line): 4.70
21 | NS(=O)(=O)c1ccc(Nc2cc(-c3c[nH]c4ccccc34)[nH]n2)cc1 [Compound X, 4-[5-(1H-Indol-3-yl)-1H-pyrazol-3-ylamino]-Benzenesulfonamide] | 4.92 | 6.41 | pKi [1]: 5.74
